These results are taken from patent US5403930A, “Substituted salicylic acids” (Pharmacia AB, priority 1991, dated 1995).

Assay [1] concerns human lymphocytes and granulocytes. Briefly: Overall activity judged from the results of Examples 40 to 42. Here is the method:
(§1) Peripheral blood mononuclear cells were isolated from heparinized blood from healthy volunteers by density gradient centrifugation as described by Bain and Pshyk, Transplantation Proc, 4:163-164 (1972). Cell proliferation induced by Concanavalin A was measured in a standard assay such as described in Soderstrom et at., Scand J Immunol, 32:503-516 (1990) using 5% fetal bovine serum in the culture medium. The reaction mixture (final concentrations) consisted of 200 000 cells stimulated with 2.5 μg/ml Concanavalin A and test compounds in a total volume of 0.2 ml. The test compounds were added at the start of the assay, which was run for a total of three days with addition ofradioactive [3H]-thymidine during the last 18 h. Cell bound radioactivity was measured in a liquid scintillation counter.
(§2) Granulocytes were isolated from the heparinized blood from healthy volunteers. The superoxide assay was essentially that of J. M. McCord and I Fridovich (J. Biol. Chem. 244:6049-6055 (1969)) as modified by G Carlin et al. (Pharmacol. Toxicol 65:121-127 (1989)). The reaction mixture contained (final concentrations) 125 μM cytochrome C in Dulbeccos phosphate buffer with Mg and Ca, 10 μM test compound and 400 000 granulocytes treated with 5 μg/ml of cytochalasin B immediately before the experiment. This reaction mixture was preincubated at 37° C. for 10 minutes, whereafter 10 nM N-formyl-L-methionyl-L-leucyl-L-phenylalanine was added to start the reaction, making the final volume 1 ml. After 10 minutes the tubes were centrifuged and the absorbance of the supernatant at 540 and 550 nm was measured. The superoxide production was expressed as the difference in absorbance at these wavelengths.
as §2, with “et at.” for “et al.”, “Ca, 100” for “Ca, 10”, “and 600” for “and 400”, “whereafter 100” for “whereafter 10”

Assay [2] deals with Human Granulocytes. Briefly: FMLP-induced superoxide production of human granulocytes, 100 μM test compound. It counts as cell-based. Conditions: 100 nM FMLP, 600 000 granulocytes. Here is the method:
Effects of Test Compounds on Superoxide Production of Human Granulocytes at 100 um Concentration
as §2, with “et at.” for “et al.”, “Ca, 100” for “Ca, 10”, “and 600” for “and 400”, “whereafter 100” for “whereafter 10”

The subject of another assay is human lymphocytes. Description: Concanavalin A-induced proliferation of human lymphocytes ([3H]-thymidine). It counts as cell-based. Conditions: Lymphocyte, 72 h, 250 μM test compound, 2.5 μg/ml Concanavalin A, 3 days, 2 experiments. Here is the method: as §1, with “Effect of Compounds on Human Lymphocyte Proliferation Peripheral” for “Peripheral”
In assay [3] the test system is Human Granulocytes. Briefly: FMLP-induced superoxide production of human granulocytes, 10 μM test compound. The settings on record: 10 nM FMLP, 400 000 granulocytes. The assay is classed as cell-based. Here is the method: Effects of Test Compounds on Superoxide Production of Human Granulocytes
as §2

Turning to `Cc1cccnc1NS(=O)(=O)c1ccc(C#Cc2cc(C(=O)O)c(O)cc2F)cc1` [Example 37, 4-Fluoro-2-hydroxy-5-[[4-[(3-methyl-2-pyridinylamino)sulfonyl]phenyl]ethynyl]benzoic acid], in assay [1], the Overall activity ranking entry is listed as “most active”. The inhibition at 100 µM in the assay on Human Granulocytes [2] amounted to 97.5%. The inhibition at 250 µM in the assay on human lymphocytes turned out to be 100%.

`Cc1cccnc1NS(=O)(=O)c1ccc(C=Cc2ccc(O)c(C(=O)O)c2)cc1` [Example 4, 2-Hydroxy-5-[2-[4-[(3-methyl-2-pyridinylamino)sulfonyl]phenyl]ethenyl]benzoic acid]: the inhibition at 10 µM in the assay with Human Granulocytes [3] is 76.9%. Besides, the inhibition at 250 µM with human lymphocytes was found to be 92.3%.

For `CN(c1ccccn1)S(=O)(=O)c1ccc(C#Cc2ccc(O)c(C(=O)O)c2)cc1` [Example 35, 2-Hydroxy-5-[[4-[N-methyl-(2-pyridinyl)aminosulfonyl]phenyl]ethynyl]benzoicacid], the inhibition at 250 µM in the assay with human lymphocytes came to 99%.

Turning to `Cc1cc(NS(=O)(=O)c2ccc(C=Cc3ccc(O)c(C(=O)O)c3)cc2)no1` [Example 18, 2-Hydroxy-5-[2-[4-[(5-methyl-3-isoxazolyl)aminosulfonyl]phenyl]ethenyl]benzoic acid], at 10 µM the inhibition with Human Granulocytes [3] was 44.2%. Also, in the assay on human lymphocytes, the inhibition at 250 µM amounted to 43.8%.

As for `O=C(O)c1cc(CCc2ccc(S(=O)(=O)Nc3ccccn3)cc2)ccc1O` [Example 26, 2-Hydroxy-5-[2-[4-[(2-pyridinylamino)sulfonyl]phenyl]ethyl]benzoic acid], the inhibition at 10 µM with Human Granulocytes [3] was determined as 26.8%. Moreover, the inhibition at 250 µM with human lymphocytes is 16%.

`O=C(O)c1cc(C=Cc2ccc(S(=O)(=O)Nc3ncccc3OCc3ccccc3)cc2)ccc1O` [Example 16, 2-Hydroxy-5-[2-[4-[[3-(phenylmethoxy)-2-pyridinylamino]sulfonyl]phenyl]ethenyl]benzoic acid] had an inhibition at 10 µM in the assay on Human Granulocytes [3] of 94.6%. In addition, in assay [1], the Overall activity ranking entry is given as “most active”. The inhibition at 250 µM in the assay with human lymphocytes was 95.4%.

In the assay with Human Granulocytes [3], `O=C(O)c1cc(C=Cc2ccc(S(=O)(=O)Nc3nc4ccc(F)cc4s3)cc2)ccc1O` [Example 21, 2-Hydroxy-5-[2-[4-[[6-fluoro-(2-benzo[d]thiazolyl)]aminosulfonyl]phenyl]ethenyl]benzoic acid] returned an inhibition at 10 µM of 93%. Also, the Overall activity ranking result in assay [1] is given as “most active”. For the same molecule, the inhibition at 250 µM with human lymphocytes is 99.8%.

As for `Cc1ccc(NS(=O)(=O)c2ccc(C=Cc3ccc(O)c(C(=O)O)c3)cc2)nc1` [Example 15, 2-Hydroxy-5-[2-[4-[(5-methyl-2-pyridinylamino)sulfonyl]phenyl]ethenyl]benzoic acid], the inhibition at 250 µM with human lymphocytes was 93.9%.

`Cc1cccnc1NS(=O)(=O)c1ccc(CC(=O)c2ccc(O)c(C(=O)O)c2)cc1` [Example 27, 2-Hydroxy-5-[[4-[(3-methyl-2-pyridinylamino)sulfonyl]phenyl]acetyl]benzoic acid] registered an inhibition at 10 µM in the assay on Human Granulocytes [3] of 32.7%. Also, in the assay on human lymphocytes, the inhibition at 250 µM stood at 37.3%.

Regarding `CN(c1ccccn1)S(=O)(=O)c1ccc(C=Cc2ccc(O)c(C(=O)O)c2)cc1` [Example 22, 2-Hydroxy-5-[2-[4-[N-methyl-(2-pyridinyl)aminosulfonyl]phenyl]ethenyl]benzoic acid], the inhibition at 10 µM in the assay with Human Granulocytes [3] was 85.5%. The Overall activity ranking result in assay [1] is recorded as “most active”. For the same molecule, the inhibition at 250 µM in the assay on human lymphocytes worked out at 99.8%.

As to `Cc1ccnc(NS(=O)(=O)c2ccc(C=Cc3ccc(O)c(C(=O)O)c3)cc2)c1` [Example 25, 2-Hydroxy-5-[2-[4-[(4-methyl-2-pyridinylamino)sulfonyl]phenyl]-ethenyl]benzoic acid ethanol solvate (2:1)], the inhibition at 10 µM in the assay on Human Granulocytes [3] turned out to be 45.5%.

`O=C(O)c1cc(C#Cc2ccc(S(=O)(=O)Nc3ccccn3)cc2)ccc1O` [Example 1, 2-Hydroxy-5-[[4-[(2-pyridinylamino)sulfonyl]phenyl]ethynyl]benzoic acid] registered an inhibition at 10 µM in the assay with Human Granulocytes [3] of 71%. The inhibition at 250 µM with human lymphocytes stood at 95.6%.

With `O=C(O)c1cc(C#Cc2ccc(S(=O)(=O)Nc3ncccc3OCc3ccccc3)cc2)ccc1O` [Example 31, 2-Hydroxy-5-[[4-[[3-(phenylmethoxy)-2-pyridinylamino]sulfonyl]phenyl]ethynyl]benzoic acid], the inhibition at 250 µM in the assay on human lymphocytes came to 100%.

As for `Cc1cccnc1NS(=O)(=O)c1ccc(C=Cc2cc(C(=O)O)c(O)cc2F)cc1` [Example 38, 4-Fluoro-2-hydroxy-5-[2-[4-[(3-methyl-2-pyridinylamino)sulfonyl]phenyl]ethenyl]benzoic acid], in assay [1], the Overall activity ranking result was “most active”. In the assay on Human Granulocytes [2], this molecule registered an inhibition at 100 µM of 98.7%. The inhibition at 250 µM in the assay on human lymphocytes was determined as 100%.

As for `O=C(O)c1cc(C#Cc2ccc(S(=O)(=O)Nc3ccc(Cl)cn3)cc2)ccc1O` [Example 32, 5-[[4-[(5-Chloro-2-pyridinylamino)sulfonyl]phenyl]ethynyl]-2hydroxybenzoic acid], the inhibition at 250 µM with human lymphocytes was 100%.

As to `O=C(O)c1cc(C=Cc2ccc(S(=O)(=O)Nc3ccc(Cl)cn3)cc2)ccc1O` [Example 17, 5-[2-[4-[(5-Chloro-2-pyridinylamino)sulfonyl]phenyl]ethenyl]-2hydroxybenzoic acid], in the assay with Human Granulocytes [3], at 10 µM the inhibition was 71.9%. For the same molecule, the Overall activity ranking entry in assay [1] is reported as “most active”. Moreover, in the assay with human lymphocytes, the inhibition at 250 µM was determined as 99.5%.

Turning to `CC(C)COC(=O)c1cc(C=Cc2ccc(S(=O)(=O)Nc3ccccn3)cc2)ccc1O` [Example 5, Isobutyl 2-hydroxy-5-[2-[4-[(2-pyridinylamino)sulfonyl]phenyl]ethenyl]benzoate], the inhibition at 10 µM in the assay on Human Granulocytes [3] was found to be 25.8%.

Take `O=C(O)c1cc(C#Cc2ccc(S(=O)(=O)Nc3nc4ccc(F)cc4s3)cc2)ccc1O` [Example 34]: in the assay on human lymphocytes, the inhibition at 250 µM came out at 98%.

Turning to `Cc1ccnc(NS(=O)(=O)c2ccc(C#Cc3ccc(O)c(C(=O)O)c3)cc2)c1` [Example 33, 2-Hydroxy-5-[[4-[(4-methyl-2-pyridinyl)amino-sulfonyl]phenyl]ethynyl]benzoic acid], the Overall activity ranking entry in assay [1] is “most active”. For the same molecule, the inhibition at 100 µM in the assay on Human Granulocytes [2] worked out at 92.1%.

For `Cc1ccnc(NS(=O)(=O)c2ccc(C=Cc3ccc(O)c(C(=O)O)c3)cc2)n1` [Example 19, 2-Hydroxy-5-[2-[4-[(4-methyl-2-pyrimidyl)amino-sulfonyl]phenyl]ethenyl]benzoic acid ethanol solvate (2:1)], the inhibition at 10 µM with Human Granulocytes [3] was 65.9%. For the same molecule, the inhibition at 250 µM with human lymphocytes turned out to be 10.3%.

`O=C(C=Cc1ccc(S(=O)(=O)Nc2ccccn2)cc1)c1ccc(O)c(C(=O)O)c1` [Example 29, 2-Hydroxy-5-[1-oxo-3-[4-[(2-pyridinylamino)sulfonyl]phenyl]-2-propenyl]benzoic acid]: in the assay with Human Granulocytes [3], the inhibition at 10 µM stood at 33.4%. Moreover, the inhibition at 250 µM in the assay with human lymphocytes was 66%.

For the molecule `Cc1cccnc1NS(=O)(=O)c1cccc(C#Cc2ccc(O)c(C(=O)O)c2)c1` [Example 39, 2-Hydroxy-5-[[3-[(3-methyl-2-pyridinylamino)sulfonyl]phenyl]ethynyl]benzoicacid], the Overall activity ranking entry in assay [1] is recorded as “most active”. In the assay on Human Granulocytes [2], this molecule yielded an inhibition at 100 µM of 93.5%. Further, the inhibition at 250 µM in the assay with human lymphocytes was found to be 100%.

For the molecule `O=C(Cc1ccc(S(=O)(=O)Nc2ccccn2)cc1)c1ccc(O)c(C(=O)O)c1` [Example 28], the inhibition at 10 µM in the assay with Human Granulocytes [3] came out at 17.9%. Besides, the inhibition at 250 µM with human lymphocytes turned out to be 15%.

On to `O=C(O)c1cc(C=Cc2ccc(S(=O)(=O)Nc3ccccn3)cc2)ccc1O` [Example 3, 2-Hydroxy-5-[2-[4-[(2-pyridinylamino)sulfonyl]phenyl]ethenyl]benzoic acid], for which the inhibition at 10 µM in the assay on Human Granulocytes [3] came out at 55.7%. Also, the inhibition at 250 µM in the assay on human lymphocytes worked out at 73.6%.

In the assay on Human Granulocytes [3], `O=C(O)c1cc(C=Cc2ccc(S(=O)(=O)Nc3cnccn3)cc2)ccc1O` [Example 20, 2-Hydroxy-5-[2-[4-[(2-pyrazinyl)aminosulfonyl]phenyl]ethenyl]benzoic acid] returned an inhibition at 10 µM of 35.1%. Further, the inhibition at 250 µM with human lymphocytes came to 34.8%.
